Laboratory results taken from patent US11458138B2 (Novartis AG, priority 2017, dated 2022).
“Also recorded” adds a separate entry of the source.

Key:
mouse dorsal skin = test: In Vivo Histology and Ki67 Staining Assay (skin cell proliferation); conditions: intact mouse dorsal skin, topical, three days of twice-a-day dosing, vs vehicle
Method: Further, the compounds of the invention increase skin cell proliferation in vivo when applied topically. The study was conducted as described the “In Vivo Histology and Ki67 Staining Assay” in the Examples Section A. Example 133 or vehicle were applied to intact mouse dorsal skin. After three days of twice-a-day dosing, the skin samples were collected and subjected to immunohistology staining for Ki67. The sections were evaluated visually for cell proliferation and for the abundance of Ki67 positive cells. The study results are documented in FIGS. 35A and 35B.
FIG. 35B compares the abundance of Ki67 positive cell in untreated and treated mouse skin. […] Also, by using siRNA to knockdown both LATS1 and LATS2, LATS as a negative regulator of the YAP pathway has also been validated.

[1] = system: corneal endothelial cell population; test: Quantitative RT-PCR of expanded corneal endothelial cell population; type: cell-based, human
Text: (2) The cells express one or more of Collagen 8a2, AQP1 (aquaporin 1) and SLC4A11 (Solute Carrier Family 4 Member 11). […] The expression of Collagen 8a2, AQP1 or SLC4A11 may be estimated by standard techniques known in the art, such as for example immunohistochemistry, quantitative RT-PCR or by FACS analysis.
The expression of RPE65 and CD31 may be estimated by standard techniques known in the art, such as for example quantitative RT-PCR, immunohistochemistry or FACS analysis.

| Compound | abundance of Ki67 positive cells (mouse dorsal skin) | basal cell proliferation and epidermal thickness (mouse dorsal skin) | expression of Collagen 8a2, AQP1, SLc4A11 by quantitative RT-PCR [1] | expression of RPE65 and CD31 by quantitative RT-PCR [1] |
| --- | --- | --- | --- | --- |
| Cc1n[nH]cc1-c1nc(NC2(C)CC2)c2ccncc2n1 [Example 133, 2-(3-methyl-1H-pyrazol-4-yl)-N-(1-methylcyclopropyl)pyrido[3,4-d]pyrimidin-4-amine] | 10% | significant increase in basal cell proliferation and epidermal thickness; also recorded: increased basal layer skin cell growth | – | – |
| CC(C)(O)CC(C)(C)Nc1nc(-c2ccncc2)nc2cnccc12 [Example 49, 2,4-dimethyl-4-{[2-(pyridin-4-yl)pyrido[3,4-d]pyrimidin-4-yl]amino}pentan-2-ol] | – | – | express genes normally expressed by corneal endothelial cells in vivo | do not express markers of other epithelia present in the eye |
